Test system: 817829-284-R-J1-PDC complex spheroids, viability
Assay: Anticancer human tumor 817829-284-R-J1-PDC patient-derived colon adenocarcinoma cell line growth inhibition [GQUAD]
Conditions: for IC50: curve of first compound; for viability, T/C: stronger effect = lower value; active = viability on the fitted dose curve at most 10% of control; inactive = the rest
Method in brief: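 Multi-cell-type spheroids of tumor cells with HUVEC and mesenchymal stem cells, treated with drug combinations. Concentrations descend in half-log steps from near clinical Cmax, or from 10 microM where Cmax is unknown; viability read-out.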

[1] = second compound 0.0316 µM, first compound 0.0316 µM
[2] = second compound 0.0316 µM, first compound 0.1 µM
[3] = second compound 0.0316 µM, first compound 0.316 µM
[4] = second compound 0.0316 µM, first compound 1 µM
[5] = second compound 0.0316 µM, first compound 3.16 µM
[6] = second compound 0.0316 µM, first compound 10 µM
[7] = second compound 0.1 µM, first compound 0.0316 µM
[8] = second compound 0.1 µM, first compound 0.1 µM
[9] = second compound 0.1 µM, first compound 0.316 µM
[10] = second compound 0.1 µM, first compound 1 µM
[11] = second compound 0.1 µM, first compound 3.16 µM
[12] = second compound 0.1 µM, first compound 10 µM
[13] = second compound 0.316 µM, first compound 0.0316 µM
[14] = second compound 0.316 µM, first compound 0.1 µM
[15] = second compound 0.316 µM, first compound 0.316 µM
[16] = second compound 0.316 µM, first compound 1 µM
[17] = second compound 0.316 µM, first compound 3.16 µM
[18] = second compound 0.316 µM, first compound 10 µM
[19] = second compound 1 µM, first compound 0.0316 µM
[20] = second compound 1 µM, first compound 0.1 µM
[21] = second compound 1 µM, first compound 0.316 µM
[22] = second compound 1 µM, first compound 1 µM
[23] = second compound 1 µM, first compound 3.16 µM
[24] = second compound 1 µM, first compound 10 µM
[25] = second compound 3.16 µM, first compound 0.0316 µM
[26] = second compound 3.16 µM, first compound 0.1 µM
[27] = second compound 3.16 µM, first compound 0.316 µM
[28] = second compound 3.16 µM, first compound 1 µM
[29] = second compound 3.16 µM, first compound 3.16 µM
[30] = second compound 3.16 µM, first compound 10 µM
[31] = second compound 10 µM, first compound 0.0316 µM
[32] = second compound 10 µM, first compound 0.1 µM
[33] = second compound 10 µM, first compound 0.316 µM
[34] = second compound 10 µM, first compound 1 µM
[35] = second compound 10 µM, first compound 3.16 µM
[36] = second compound 10 µM, first compound 10 µM
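Note: spheroids exposed to agents for 7 days before readout.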
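Throughout, for viability, T/C: percent viability relative to DMSO vehicle control taken as 100%.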

COc1ncnc(C2CC2)c1-c1ncc2cnn(Cc3ccc(-c4nc(C(F)(F)F)cn4C(C)C)cc3)c2n1 + CN(C)c1ccc(Nc2c3ccc(NC(=O)CCN4CCCC4)cc3nc3cc(NC(=O)CCN4CCCC4)ccc23)cc1
> 10 µM: IC50 (second compound 0.0316 µM) | IC50 (second compound 0.1 µM) | IC50 (second compound 0.316 µM) | IC50 (second compound 1 µM) | IC50 (second compound 3.16 µM)
inactive: viability, T/C [1] 102% | viability, T/C [2] 119% | viability, T/C [3] 106% | viability, T/C [4] 107% | viability, T/C [5] 108% | viability, T/C [6] 115% | viability, T/C [7] 100% | viability, T/C [8] 123% | viability, T/C [9] 104% | viability, T/C [10] 105% | viability, T/C [11] 111% | viability, T/C [12] 114% | viability, T/C [13] 100% | viability, T/C [14] 118% | viability, T/C [15] 102% | viability, T/C [16] 107% | viability, T/C [17] 105% | viability, T/C [18] 119% | viability, T/C [19] 107% | viability, T/C [20] 112% | viability, T/C [21] 115% | viability, T/C [22] 104% | viability, T/C [23] 104% | viability, T/C [24] 114% | viability, T/C [25] 106% | viability, T/C [26] 103% | viability, T/C [27] 100% | viability, T/C [28] 93.2% | viability, T/C [29] 103% | viability, T/C [30] 97.5% | viability, T/C [31] 114% | viability, T/C [32] 108% | viability, T/C [33] 91.6% | viability, T/C [34] 95.3% | viability, T/C [35] 53.8% | viability, T/C [36] 31.1%
4.43 µM: IC50 (second compound 10 µM)

Cc1[nH]c2ccccc2c1CCNCc1ccc(/C=C/C(=O)NO)cc1 + CN(C)c1ccc(Nc2c3ccc(NC(=O)CCN4CCCC4)cc3nc3cc(NC(=O)CCN4CCCC4)ccc23)cc1
active: viability, T/C (second compound 0.0316 µM, first compound 0.0999 µM) 3.89% | viability, T/C [3] 0.19% | viability, T/C (second compound 0.1 µM, first compound 0.0999 µM) 3.79% | viability, T/C [9] 0.12% | viability, T/C (second compound 0.316 µM, first compound 0.0999 µM) 3.89% | viability, T/C [15] 0.11% | viability, T/C (second compound 1 µM, first compound 0.0999 µM) 4.37% | viability, T/C [21] 0.14% | viability, T/C (second compound 3.16 µM, first compound 0.0999 µM) 5.12% | viability, T/C [27] 0.15% | viability, T/C (second compound 10 µM, first compound 0.0999 µM) 1.95% | viability, T/C [33] 0.22%
0.0521 µM: IC50 (second compound 0.0316 µM)
inactive: viability, T/C (second compound 0.0316 µM, first compound 0.000999 µM) 108% | viability, T/C (second compound 0.0316 µM, first compound 0.00316 µM) 99.3% | viability, T/C (second compound 0.0316 µM, first compound 0.00999 µM) 126% | viability, T/C [1] 86.1% | viability, T/C (second compound 0.1 µM, first compound 0.000999 µM) 89.8% | viability, T/C (second compound 0.1 µM, first compound 0.00316 µM) 110% | viability, T/C (second compound 0.1 µM, first compound 0.00999 µM) 109% | viability, T/C [7] 72.3% | viability, T/C (second compound 0.316 µM, first compound 0.000999 µM) 94.1% | viability, T/C (second compound 0.316 µM, first compound 0.00316 µM) 115% | viability, T/C (second compound 0.316 µM, first compound 0.00999 µM) 117% | viability, T/C [13] 75.3% | viability, T/C (second compound 1 µM, first compound 0.000999 µM) 104% | viability, T/C (second compound 1 µM, first compound 0.00316 µM) 100% | viability, T/C (second compound 1 µM, first compound 0.00999 µM) 126% | viability, T/C [19] 88.4% | viability, T/C (second compound 3.16 µM, first compound 0.000999 µM) 96.1% | viability, T/C (second compound 3.16 µM, first compound 0.00316 µM) 99.2% | viability, T/C (second compound 3.16 µM, first compound 0.00999 µM) 119% | viability, T/C [25] 76.1% | viability, T/C (second compound 10 µM, first compound 0.000999 µM) 99.2% | viability, T/C (second compound 10 µM, first compound 0.00316 µM) 113% | viability, T/C (second compound 10 µM, first compound 0.00999 µM) 78.6% | viability, T/C [31] 27.2%
0.0457 µM: IC50 (second compound 0.1 µM)
0.0471 µM: IC50 (second compound 0.316 µM)
0.0477 µM: IC50 (second compound 3.16 µM)
0.0533 µM: IC50 (second compound 1 µM)
0.0191 µM: IC50 (second compound 10 µM)

O=C(NO)c1cnc(N2CCN(S(=O)(=O)c3ccc4ccccc4c3)CC2)nc1 + CN(C)c1ccc(Nc2c3ccc(NC(=O)CCN4CCCC4)cc3nc3cc(NC(=O)CCN4CCCC4)ccc23)cc1
inactive: viability, T/C [1] 107% | viability, T/C [2] 91.7% | viability, T/C [7] 116% | viability, T/C [8] 101% | viability, T/C [13] 98.8% | viability, T/C [14] 111% | viability, T/C [19] 103% | viability, T/C [20] 99.4% | viability, T/C [25] 110% | viability, T/C [26] 89.4% | viability, T/C [31] 102% | viability, T/C [32] 39.8%
0.184 µM: IC50 (second compound 0.1 µM)
0.189 µM: IC50 (second compound 0.316 µM)
0.17 µM: IC50 (second compound 3.16 µM)
active: viability, T/C [3] 5.47% | viability, T/C [4] 0.25% | viability, T/C [5] 0.18% | viability, T/C [6] 0.2% | viability, T/C [9] 4.32% | viability, T/C [10] 0.23% | viability, T/C [11] 0.12% | viability, T/C [12] 0.17% | viability, T/C [15] 5.37% | viability, T/C [16] 0.23% | viability, T/C [17] 0.11% | viability, T/C [18] 0.15% | viability, T/C [21] 4.41% | viability, T/C [22] 0.21% | viability, T/C [23] 0.1% | viability, T/C [24] 0.13% | viability, T/C [27] 4.33% | viability, T/C [28] 0.21% | viability, T/C [29] 0.12% | viability, T/C [30] 0.15% | viability, T/C [33] 2.02% | viability, T/C [34] 0.23% | viability, T/C [35] 0.19% | viability, T/C [36] 0.19%
0.182 µM: IC50 (second compound 1 µM)
0.0828 µM: IC50 (second compound 10 µM)
0.174 µM: IC50 (second compound 0.0316 µM)
